According to publication PMC7615700, “Is the ADP ribose site of the Chikungunya virus NSP3 Macro domain a target for antiviral approaches?” (Acta tropica, 2020):

Legend:
CHIKV = conditions: cited from earlier work; for in vitro anti-CHIKV activity: by inhibiting RNA production and viral protein expression, ref Lani et al., 2016
[1] = MTT cell viability assay in Huh-7 cells; conditions: human
[2] = system: CHIKV-Fluc SGR (CHIKV subgenomic replicon) in Huh-7 cells; test: CHIKV-Fluc SGR replication assay (luciferase) in Huh-7 cells; conditions: for EC50 / CHIKV %replication 20 uM: Huh-7, CHIKV-Fluc SGR; for EC50: 24 h post treatment; for SI (CC50/EC50): Huh-7; for CHIKV %replication 20 uM: 24 h treatment; for inhibition at 20 µM: Huh-7, read-out: inhibition of CHIKV replication
[3] = Cell viability in RD cells; assay type: cell-based; conditions: human, RD rhabdomyosarcoma cells electroporated with CHIKV-Fluc RNA
Text: (§1) DMSO was used as non-treated control.

[4] = Cell viability in C2C12 cells; assay type: cell-based, murine; conditions: mouse, C2C12 myoblast cells electroporated with CHIKV-Fluc RNA
Text: as §1

Huh-7 cells = test: MTT cell viability assay in Huh-7 cells; conditions: 20 μM, Huh-7, MTT
[5] = system: CHIKV-Fluc SGR in RD cells; test: CHIKV-Fluc replication assay in RD cells; conditions: Chikungunya virus, read-out: inhibition of CHIKV replication
[6] = system: CHIKV-Fluc SGR in C2C12 cells; test: CHIKV-Fluc replication assay in C2C12 cells; conditions: Chikungunya virus, C2C12, read-out: inhibition of CHIKV replication
[7] = system: CHIKV-D-Luc SGR in Huh-7 cells; test: CHIKV-D-Luc SGR dual luciferase replicon assay in Huh-7 cells; conditions: Huh-7, non-toxic concentrations
[8] = decimal comma; ref ZINC15; cited from earlier work

Structure (SMILES): O=c1cc(-c2ccccc2)oc2cc(O)c(O)c(O)c12 [Baicalein]
- inhibition of virus entry versus replication (CHIKV; ref Oo et al., 2018): higher inhibition on virus entry than replication

Structure (SMILES): CC(c1ccccc1)N(Cc1nc(C(=O)NCCN2CCOCC2)co1)Cc1ccc(Cl)cc1Cl (centres unmarked) [Compound 1C5]
- CC50 at 24 h [1]: 27.5 µM
- EC50 ([2]; Chikungunya virus, Huh-7, 24 h): 19.8 µM
- SI (CC50/EC50) [2]: 1.4

Structure (SMILES): O=C(NCc1cccnc1)c1coc(CN(Cc2ccccc2)Cc2ccc3c(c2)OCO3)n1 [Compound 1C13]
- CC50 at 24 h [1]: 18.1 µM
- EC50 ([2]; Chikungunya virus, Huh-7, 24 h): 6.9 µM
- SI (CC50/EC50) [2]: 2.6

Structure (SMILES): CC(c1ccccc1)N(Cc1cccc(Cl)c1)Cc1nc(C(=O)NCCN2CCOCC2)co1 (centres unmarked) [Compound 2C5]
- CC50 at 24 h [1]: 27.4 µM
- EC50 ([2]; Chikungunya virus, Huh-7, 24 h): 27.3 µM
- SI (CC50/EC50) [2]: 1.0

Structure (SMILES): CC(c1ccccc1)N(Cc1nc(C(=O)NCCN2CCOCC2)co1)Cc1ccccc1F (centres unmarked) [Compound 3C5]
- CC50 at 24 h [1]: 40.5 µM
- EC50 ([2]; Chikungunya virus, Huh-7, 24 h): 26.9 µM
- SI (CC50/EC50) [2]: 1.5

Structure (SMILES): COc1cccc(CN(Cc2nc(C(=O)NCCN3CCOCC3)co2)C(C)c2ccccc2)c1 (centres unmarked) [Compound 4C5]
- CC50 at 24 h [1]: 45.2 µM
- EC50 ([2]; Chikungunya virus, Huh-7, 24 h): 29.3 µM
- SI (CC50/EC50) [2]: 1.5

Structure (SMILES): CC(c1ccccc1)N(Cc1cccc(F)c1)Cc1nc(C(=O)NCCN2CCOCC2)co1 (centres unmarked) [Compound C5]
- viability at 24 h, 100 µM [3]: 65%
- viability at 24 h, 100 µM [4]: 49%
- CC50 at 24 h [1]: 38.9 µM
- viability at 24 h, 20 µM [1]: 94%
- % Toxicity (20μM) (Huh-7 cells): None
- inhibition at 100 µM [5]: 100%
- inhibition at 100 µM [6]: 70%
- CHIKV %replication 20 uM [2]: 53%
- EC50 ([2]; Chikungunya virus, Huh-7, 24 h): 12.7 µM
- inhibition at 20 µM ([2]; Chikungunya virus): 53%
- SI (CC50/EC50) [2]: 3.1
- Rluc levels (input translation and early replication) [7]: significantly decreased

Structure (SMILES): O=C(NCc1cccnc1)c1coc(CN(Cc2ccoc2)Cc2cccc(C(F)(F)F)c2)n1 [Compound C13]
- viability at 24 h, 100 µM [3]: 70%
- viability at 24 h, 100 µM [4]: 51%
- logP ZINC15 [8]: 4,81
- CC50 at 24 h [1]: 36.8 µM
- viability at 24 h, 20 µM [1]: 94%
- % Toxicity (20μM) (Huh-7 cells): None
- inhibition at 100 µM [5]: 95%
- inhibition at 100 µM [6]: 64%
- CHIKV %replication 20 uM [2]: 66%
- EC50 ([2]; Chikungunya virus, Huh-7, 24 h): 11.9 µM
- inhibition at 20 µM ([2]; Chikungunya virus): 66%
- SI (CC50/EC50) [2]: 3.2
- EC50 [2]: 11.6 µM
- Rluc levels (input translation and early replication) [7]: significantly decreased

Structure (SMILES): O=c1c(O)c(-c2ccc(O)c(O)c2)oc2cc(O)ccc12 [fisetin]
- in vitro anti-CHIKV activity (CHIKV): showed in vitro anti-CHIKV activity

Structure (SMILES): O=c1c(O)c(-c2ccc(O)c(O)c2)oc2cc(O)c(O)c(O)c12 [quercetagetin]
- in vitro anti-CHIKV activity (CHIKV): showed in vitro anti-CHIKV activity
